US6781000B1, “Alpha-ketoamide inhibitors of 20S proteasome” (CV Theurapeutics, Inc., priority 1998, dated 2004)

Columns and labels:
[1] = target: T1, peptidylglutamyl activity of 20S proteasome (Bos taurus, UniProt Q2TBP0+Q3MHN0); test: 20S proteasome peptidylglutamyl activity inhibition assay (CBZ-D-Ala-Leu-Glu-AMC cleavage); assay type: biochemical; details: Example 6: 2 μg 20S proteasome from bovine brain, substrate CBZ D-Ala-Leu-Glu-AMC, 15 minutes at 37° C.
T1 construct: was purified to homogeneity from bovine brain according to published methods; from tissue; host or cells: bovine brain
Procedure: Compounds of this invention prepared according to the method of Example 1 were also tested as follows. The 20S catalytic subunit of the proteasome (also known as the multicatalytic proteinase complex) was purified to homogeneity from bovine brain according to published methods (Wilk S. and Orlowski, M. 1983, 40 842 J. Neurochem). […] of the complex is measured by the increase in fluorescence following cleavage of the substrate peptide CBZ D-Ala-Leu-Glu-(7-amino-4-methyl coumarin). The standard in vitro assay consists of 2 μg 20S proteasome, 0.1-100 μg/ml proteasome inhibitor in […] 50 mM HEPES, containing 0.1% sodium dodecyl sulphate, pH 7.5. The proteolytic reaction is initiated by the addition of […] fluorogenic peptide substrate and allowed to progress for 15 minutes at 37° C. The reaction is terminated by the addition of […] 100 mM acetate buffer, pH 4.0. The rate of proteolysis is directly proportional to the amount of liberated aminomethylcoumarin which is measured by fluorescent spectroscopy (EX 370 nm, EM 430 nm). Compounds 1-207 were tested for peptidylglutamyl activity inhibition at >10 μg/mL. Compound 190 was active at 5 μg/mL.

[2] = target: T2, chymotrypsin-like activity of 20S proteasome (Bos taurus, UniProt Q2TBX6+Q32KL2); test: 20S proteasome chymotryptic activity inhibition assay (Suc-Leu-Leu-Val-Tyr-AMC cleavage); assay type: biochemical; details: 2 μg 20S proteasome from bovine brain, 50 μM fluorogenic substrate, 15 minutes at 37° C., pH7.5
T2 construct: was purified to homogeneity from bovine brain according to published methods; from tissue; host or cells: bovine brain
In short: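 Bovine brain 20S proteasome (2 μg) with inhibitor at 0.1-100 μg/ml in 50 mM HEPES, 0.1% SDS, pH7.5. Reaction started with 50 μM Suc-LLVY-AMC, run 15 min at 37° C, stopped with pH 4.0 acetate; liberated AMC read by fluorescence (EX 370 nm, EM 430 nm).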

Compound	peptidylglutamyl activity inhibition, active at [1] [µg/mL]	IC50 for the inhibition of the chymotrypsin-like activity of 20S proteasome [2] [µg/mL]
CC(C)CC(NC(=O)C(Cc1ccc(-c2ccccc2)cc1)NC(=O)C(=O)Cc1c[nH]c2ccccc12)C(=O)NC(Cc1c[nH]cn1)C(=O)O (centres unmarked) [Compound 190]	5	3
CC(C)CC(NC(=O)C(Cc1ccc2ccccc2c1)NC(=O)C(=O)Cc1c[nH]c2ccccc12)C(=O)NC(Cc1c[nH]cn1)C(=O)O (centres unmarked) [Compound 204]	–	>10
CC(C)CC(NC(=O)C(Cc1ccc2ccccc2c1)NC(=O)C(=O)Cc1c[nH]c2ccccc12)C(=O)NC(CCCNC(=N)N)C(=O)O (centres unmarked) [Compound 205]	–	>10
CC(C)CC(NC(=O)C(Cc1ccc2ccccc2c1)NC(=O)C(=O)Cc1c[nH]c2ccccc12)C(=O)NC(Cc1cccnc1)C(=O)O (centres unmarked) [Compound 206]	–	>10
